Source: paper PMC11938010, “Positive Charge in an Antimalarial Compound Unlocks Broad-Spectrum Antibacterial Activity” (JACS Au, 2025)
Values after ≈ are worked out from the molar mass of the structure shown. Like-named read-outs stand apart in the source and are kept apart here.

Columns and labels:
Solubility in 7H9 medium = type: physicochemical; conditions: M. tuberculosis growth medium (7H9)
in vitro = conditions: human, HepG2 CC50, 48 h, MTT
[1] = tested on: Plasmodium falciparum NF54; test: P. falciparum in vitro drug sensitivity assay on asexual blood stage parasites ([3H]-hypoxanthine incorporation); type: cell-based; conditions: read-out: PfNF54 IC50
E. coli K12 = test: In vitro antibacterial activity (growth inhibition, OD600), E. coli wild-type; type: cell-based; conditions: Escherichia coli; for inhibition at 50 µM: Table 1 and main text
Escherichia coli ∆tolC = test: microbe, parasite or virus in culture; type: cell-based; conditions: for MIC / inhibition at 50 µM: Escherichia coli; for inhibition at 50 µM: read-out: Ec∆tolC inh. at 50 µM (%)
[2] = tested on: Pseudomonas aeruginosa PA14; test: In vitro antibacterial activity (growth inhibition, OD600), P. aeruginosa; type: cell-based; conditions: PA14, 50 μM compound, Table 1 and main text, read-out: PA14 inh. at 50 μM
[3] = tested on: Streptococcus pneumoniae (DSM20566); test: In vitro antibacterial activity (MIC), S. pneumoniae; type: cell-based; conditions: read-out: Sp MIC95
[4] = tested on: Staphylococcus aureus ssp. Aureus; test: In vitro antibacterial activity (MIC), S. aureus; type: cell-based; conditions: read-out: Sa MIC95
Acinetobacter baumannii = test: In vitro antibacterial activity (growth inhibition, OD600), A. baumannii; type: cell-based; conditions: for MIC: read-out: Ab MIC95
[5] = tested on: Mycobacterium tuberculosis (Mtb) strain H37Rv; test: microbe, parasite or virus in culture; type: cell-based; conditions: 168 h, 7 days, footnote b: not active at maximum solubility, read-out: MtbH37Rv MIC90
[6] = In vitro cytotoxicity by XTT assay; type: cell-based; conditions: human, human monocyte-derived macrophages (hMdM)
[7] = Plasmodium falciparum, NF54, Table 1 and main text
[8] = K12, 50 μM compound, read-out: EcK12 inh. at 50 μM
[9] = Streptococcus pneumoniae, DSM20566, Table 1 and main text
[10] = Streptococcus pneumoniae, DSM20566, Table S2, with standard deviation
[11] = Staphylococcus aureus, Table 1 and main text
[12] = Staphylococcus aureus, Table S2, with standard deviation
[13] = 50 μM compound, Table 1 and main text, read-out: Ab inh. at 50 μM

With O=C(Nc1cccc(C(F)(F)F)c1)c1cc(-c2cc(Cl)ccc2O)[nH]n1 [Compound 1a] the “7h9 media Sol.” value (Solubility in 7H9 medium) was < 8 µM, the CC50 (in vitro) was > 50 µM and the IC50 [1, 7] was 0.21 µM. For the same molecule, the inhibition at 50 µM (E. coli K12; [8]) was < 10%, the MIC (Escherichia coli ∆tolC; read-out: EcΔtolC MIC95) was > 50 µM and the inhibition at 50 µM (Escherichia coli ∆tolC) was < 10%. For the same molecule, the “EcΔtolC MIC95” value (Escherichia coli ∆tolC; Table 1 and main text) was >50 µM, the inhibition at 50 µM [2] was < 10% and the MIC [3, 9] was > 50 µM. For the same molecule, the MIC [3, 10] was > 50 µM, the MIC ([3]; Table 1 and main text) was >50 µM and the MIC [4, 11] was > 50 µM. For the same molecule, the MIC [4, 12] was > 50 µM, the MIC ([4]; Table 1 and main text) was >50 µM and the inhibition at 50 µM (Acinetobacter baumannii; [13]) was < 10%.

In the case of O=C(Nc1cccc(CN2CCNCC2)c1)c1cc(-c2cc(Cl)ccc2O)[nH]n1 [Compound 3A], the “7h9 media Sol.” value (Solubility in 7H9 medium) is reported as 64 µM, the CC50 (in vitro) is reported as 12 µM and the IC50 [1, 7] is reported as 0.62 µM. For the same molecule, the inhibition at 50 µM (E. coli K12; [8]) was 28%, the MIC90 [5] was > 64 µM and the MIC (Escherichia coli ∆tolC; read-out: EcΔtolC MIC95) was 45 µM (≈ 18.5 µg/mL). The MIC (Escherichia coli ∆tolC; read-out: Ec∆tolC MIC95 (µM)) was 45 ± 1 µM (≈ 18.5 µg/mL), the inhibition at 50 µM [2] was 50% and the MIC [3, 9] was 40 µM (≈ 16.5 µg/mL). The MIC [3, 10] was 40 ± 7 µM (≈ 16.5 µg/mL), the MIC [4, 11] was > 50 µM and the MIC [4, 12] was > 50 µM. It also gave an inhibition at 50 µM (Acinetobacter baumannii; [13]) of 21%.

In the case of O=C(Nc1cccc(N2CCNCC2)c1)c1cc(-c2cc(Cl)ccc2O)[nH]n1 [Compound 5A], the “7h9 media Sol.” value (Solubility in 7H9 medium) is reported as 64 µM, the CC50 (in vitro) is reported as 9 µM and the IC50 [1, 7] is reported as 0.13 µM. The inhibition at 50 µM (E. coli K12; [8]) was 83%, the MIC90 [5] was 64 µM (≈ 25.5 µg/mL) and the MIC (Escherichia coli ∆tolC; read-out: EcΔtolC MIC95) was 21 µM (≈ 8.36 µg/mL). It also gave an MIC (Escherichia coli ∆tolC; read-out: Ec∆tolC MIC95 (µM)) of 21 ± 2 µM (≈ 8.36 µg/mL), an inhibition at 50 µM [2] of 60% and an MIC [3, 9] of 26 µM (≈ 10.3 µg/mL). For the same molecule, the MIC [3, 10] was 26 ± 1 µM (≈ 10.3 µg/mL), the MIC [4, 11] was 37 µM (≈ 14.7 µg/mL) and the MIC [4, 12] was 37 ± 10 µM (≈ 14.7 µg/mL). The inhibition at 50 µM (Acinetobacter baumannii; [13]) was 34% and the inhibition at 50 µM (Acinetobacter baumannii; 50 µM, Table S1, with standard deviation, read-out: Ab inh. at 50 µM (%)) was 34.3 ± 0.4%.

For O=C(Nc1ccc(N2CCNCC2)cc1)c1cc(-c2cc(Cl)ccc2O)[nH]n1 [Compound 6A], the “7h9 media Sol.” value (Solubility in 7H9 medium) was 16 µM, the CC50 (in vitro) was 11.8 µM and the IC50 [1, 7] was 0.14 µM. For the same molecule, the inhibition at 50 µM (E. coli K12; [8]) was 49%, the MIC90 [5] was > 16 µM and the MIC (Escherichia coli ∆tolC; read-out: EcΔtolC MIC95) was 22.5 µM (≈ 8.95 µg/mL). The MIC (Escherichia coli ∆tolC; read-out: Ec∆tolC MIC95 (µM)) was 22.5 µM (≈ 8.95 µg/mL), the inhibition at 50 µM [2] was 63% and the MIC [3, 9] was 45 µM (≈ 17.9 µg/mL). For the same molecule, the MIC [3, 10] was 45 µM (≈ 17.9 µg/mL), the MIC [4, 11] was > 50 µM and the MIC [4, 12] was > 50 µM. For the same molecule, the inhibition at 50 µM (Acinetobacter baumannii; [13]) was 37%.

With NCc1cccc(NC(=O)c2cc(-c3cc(Cl)ccc3O)[nH]n2)c1 [Compound 7A] the “7h9 media Sol.” value (Solubility in 7H9 medium) was 64 µM, the CC50 (in vitro) was 28.4 µM and the IC50 [1, 7] was 0.3 µM. For the same molecule, the inhibition at 50 µM (E. coli K12; [8]) was 27%, the MIC90 [5] was > 64 µM and the MIC (Escherichia coli ∆tolC; read-out: EcΔtolC MIC95) was 47 µM (≈ 16.1 µg/mL). It also gave an MIC (Escherichia coli ∆tolC; read-out: Ec∆tolC MIC95 (µM)) of 47 ± 1 µM (≈ 16.1 µg/mL), an inhibition at 50 µM [2] of 44% and an MIC [3, 9] of 43 µM (≈ 14.7 µg/mL). For the same molecule, the MIC [3, 10] was 43 ± 11 µM (≈ 14.7 µg/mL), the MIC [4, 11] was > 50 µM and the MIC [4, 12] was > 50 µM. The inhibition at 50 µM (Acinetobacter baumannii; [13]) was 15%.

In the case of NCc1ccc(NC(=O)c2cc(-c3cc(Cl)ccc3O)[nH]n2)cc1 [Compound 8A], the “7h9 media Sol.” value (Solubility in 7H9 medium) is reported as 16 µM, the CC50 (in vitro) is reported as 30 µM and the IC50 [1, 7] is reported as > 2 µM. The IC50 ([1]; Table 1 and main text) was 1.8 µM, the MIC90 [5] was > 16 µM and the MIC (Escherichia coli ∆tolC; read-out: EcΔtolC MIC95) was > 50 µM. For the same molecule, the inhibition at 50 µM (Escherichia coli ∆tolC) was 44 ± 16%, the MIC [3, 9] was > 50 µM and the MIC [3, 10] was > 50 µM. For the same molecule, the MIC [4, 11] was > 50 µM and the MIC [4, 12] was > 50 µM.

With N=C(N)NCc1ccc(NC(=O)c2cc(-c3cc(Cl)ccc3O)[nH]n2)cc1C(F)(F)F [Compound 10G] the CC50 (in vitro) was > 50 µM, the IC50 [1, 7] was 0.25 µM and the inhibition at 50 µM (E. coli K12; [8]) was 86%. It also gave an MIC90 [5] of 8 µM (≈ 3.62 µg/mL), an MIC (Escherichia coli ∆tolC; read-out: EcΔtolC MIC95) of 3.5 µM (≈ 1.58 µg/mL) and an MIC (Escherichia coli ∆tolC; read-out: Ec∆tolC MIC95 (µM)) of 3.5 ± 0.8 µM (≈ 1.58 µg/mL). It also gave an inhibition at 50 µM [2] of 55%, an MIC [3, 9] of 16 µM (≈ 7.25 µg/mL) and an MIC [3, 10] of 16 ± 5 µM (≈ 7.25 µg/mL). For the same molecule, the MIC [4, 11] was 5 µM (≈ 2.26 µg/mL), the MIC [4, 12] was 5 ± 1 µM (≈ 2.26 µg/mL) and the CC90 at 24 h [6] was > 32 µM. For the same molecule, the inhibition at 50 µM (Acinetobacter baumannii; [13]) was 49%.

For N=C(N)N1CCN(c2cc(NC(=O)c3cc(-c4cc(Cl)ccc4O)[nH]n3)cc(C(F)(F)F)c2)CC1 [Compound 11G, N-(3-(4-Carbamimidoylpiperazin-1-yl)-5-(trifluoromethyl)phenyl)-5-(5-chloro-2-hydroxyphenyl)-1H-pyrazole-3-carboxamide], the CC50 (in vitro) was > 25 µM, the IC50 [1, 7] was 0.5 µM and the MIC (E. coli K12; K12, Table S1, printed inside the inhibition column, with standard deviation, unit from Table 1 footnote, read-out: EcK12 MIC95) was 48 ± 5 µM (≈ 24.4 µg/mL). For the same molecule, the MIC90 [5] was 8 µM (≈ 4.06 µg/mL), the MIC (Escherichia coli ∆tolC; read-out: EcΔtolC MIC95) was 4 µM (≈ 2.03 µg/mL) and the MIC (Escherichia coli ∆tolC; read-out: Ec∆tolC MIC95 (µM)) was 4 ± 1 µM (≈ 2.03 µg/mL). For the same molecule, the inhibition at 50 µM [2] was 25%, the MIC [3, 9] was 28 µM (≈ 14.2 µg/mL) and the MIC [3, 10] was 28 ± 15 µM (≈ 14.2 µg/mL). For the same molecule, the MIC [4, 11] was 3.2 µM (≈ 1.63 µg/mL), the MIC [4, 12] was 3.2 ± 0.1 µM (≈ 1.63 µg/mL) and the CC90 at 24 h [6] was > 32 µM. The MIC (Acinetobacter baumannii; Table S1, printed inside the inhibition column, with standard deviation, unit from Table 1 footnote) was 17 ± 5 µM (≈ 8.63 µg/mL) and the MIC (Acinetobacter baumannii; printed inside the Ab inhibition column, Table 1 and main text) was 17 µM (≈ 8.63 µg/mL).

In the case of N=C(N)N1CCN(c2ccc(NC(=O)c3cc(-c4cc(Cl)ccc4O)[nH]n3)cc2C(F)(F)F)CC1 [Compound 12G, N-(4-(4-Carbamimidoylpiperazin-1-yl)-3-(trifluoromethyl)phenyl)-5-(5-chloro-2-hydroxyphenyl)-1H-pyrazole-3-carboxamide], the CC50 (in vitro) is reported as 30 µM, the IC50 [1, 7] is reported as 0.2 µM and the inhibition at 50 µM (E. coli K12; [8]) is reported as 51%. It also gave an MIC90 [5] of 4 µM (≈ 2.03 µg/mL), an MIC (Escherichia coli ∆tolC; read-out: EcΔtolC MIC95) of 2.8 µM (≈ 1.42 µg/mL) and an MIC (Escherichia coli ∆tolC; read-out: Ec∆tolC MIC95 (µM)) of 2.8 ± 0.3 µM (≈ 1.42 µg/mL). The inhibition at 50 µM [2] was < 10%, the MIC [3, 9] was 31 µM (≈ 15.7 µg/mL) and the MIC [3, 10] was 31 ± 6 µM (≈ 15.7 µg/mL). It also gave an MIC [4, 11] of 2.4 µM (≈ 1.22 µg/mL), an MIC [4, 12] of 2.4 ± 0.3 µM (≈ 1.22 µg/mL) and a CC90 at 24 h [6] of 32 µM. It also gave an inhibition at 50 µM (Acinetobacter baumannii; [13]) of 33%.

For N=C(N)N1CCN(c2cc(NC(=O)c3cc(-c4cc(Cl)ccc4O)[nH]n3)ccc2C(F)(F)F)CC1 [Compound 13G, N-(3-(4-Carbamimidoylpiperazin-1-yl)-4-(trifluoromethyl)phenyl)-5-(5-chloro-2-hydroxyphenyl)-1H-pyrazole-3-carboxamide], the CC50 (in vitro) was > 25 µM, the IC50 [1, 7] was 0.5 µM and the inhibition at 50 µM (E. coli K12; K12, read-out: EcK12 inh. at 50 μM, 50 μM compound) was ≥ 45%. It also gave an MIC90 [5] of 8 µM (≈ 4.06 µg/mL), an MIC (Escherichia coli ∆tolC; read-out: EcΔtolC MIC95) of 5 µM (≈ 2.54 µg/mL) and an MIC (Escherichia coli ∆tolC; read-out: Ec∆tolC MIC95 (µM)) of 5 ± 2 µM (≈ 2.54 µg/mL). The inhibition at 50 µM [2] was 17%, the MIC [3, 9] was 16 µM (≈ 8.13 µg/mL) and the MIC [3, 10] was 16 ± 6 µM (≈ 8.13 µg/mL). The MIC [4, 11] was 2.5 µM (≈ 1.27 µg/mL), the MIC [4, 12] was 2.5 ± 0.3 µM (≈ 1.27 µg/mL) and the CC90 at 24 h [6] was > 32 µM. For the same molecule, the inhibition at 50 µM (Acinetobacter baumannii; [13]) was ≥ 45%.
